Reference: paper PMC12481029, “Design, synthesis, antiproliferative assessments, and computational studies of new quinolin-2(1H)-ones as dual EGFR/HER-2 inhibitors” (Frontiers in Chemistry, 2025)
“And” between values parts separate entries of the source, which are not always exact repeats. Equal entries are not always repeated. Where two headings read alike, the source gives them in different places.

Assays:
[1] = test system: lung (A-549) cancer cell line; assay: Antiproliferative assay, A-549; format: cell-based; conditions: Homo sapiens, A549; read-out: Antiproliferative activity IC50 ± SEM, A-549
Source text: (§1) The MTT assay ([Al-Wahaibi et al., 2022]; [Mahmoud et al., 2023]) was employed to assess the antiproliferative effects of compounds 3a-h and 5a-g on four human cancer cell lines: colon (HT-29) cancer, pancreatic (Panc-1) cancer, lung (A-549) cancer, and breast (MCF-7) cancer cell lines. Erlotinib was applied as a reference. Table 1 presents the median inhibitory concentration (IC50) and average IC50 (GI50) values for each compound evaluated on the four cancer cell lines.
(§2) Compounds 3a-h and 5a-g were tested for their antiproliferative activities on four human cancer cell lines: colon (HT-29), pancreatic (Panc-1), lung (A-549), and breast (MCF-7) using the MTT assay ([Al-Wahaibi et al., 2022]; [Mahmoud et al., 2023]). Erlotinib was applied as a reference.
(§3) To explore the antiproliferative potential of compounds propidium iodide fluorescence assay was performed using different cell lines such as Panc-1 (pancreas cancer cell line), MCF-7 (breast cancer cell line), HT-29 (colon cancer cell line) and A-549 (epithelial cancer cell line), respectively. To calculate the total nuclear DNA, a fluorescent dye (propidium iodide, PI) is used which can attach to the DNA, thus offering a quick and precise technique. PI cannot pass through the cell membrane and its signal intensity can be considered as directly proportional to quantity of cellular DNA. Cells whose cell membranes are damaged or have changed permeability are counted as dead ones. The assay was performed by seeding the cells of different cell lines at a density of 3000-7500 cells/well (in 200μl medium) in culture plates followed by incubation for 24h at 37 °C in humidified 5%CO2/95% air atmospheric conditions. The medium was removed; the compounds were added to the plates at 10 μM concentrations (in 0.1% DMSO) in triplicates, followed by incubation for 48h. DMSO (0.1%) was used as control. After incubation, medium was removed followed by the addition of PI (25 μl, 50μg/mL in water/medium) to each well of the plates. At -80 °C, the plates were allowed to freeze for 24 h, followed by thawing at 25 °C. A fluorometer (Polar-Star BMG Tech) was used to record the readings at excitation and emission wavelengths of 530 and 620 nm for each well. The percentage cytotoxicity of compounds was calculated using the following formula: […]

[2] = test system: breast (MCF-7) cancer cell line; assay: Antiproliferative assay, MCF-7; format: cell-based; conditions: Homo sapiens, MCF7; read-out: Antiproliferative activity IC50 ± SEM, MCF-7
Source text: as §1, §2, §3

[3] = test system: pancreatic (Panc-1) cancer cell line; assay: Antiproliferative assay, Panc-1; format: cell-based; conditions: Homo sapiens, read-out: Antiproliferative activity IC50 ± SEM, Panc-1
Source text: as §1, §2, §3

[4] = test system: colon (HT-29) cancer cell line; assay: Antiproliferative assay, HT-29; format: cell-based; conditions: Homo sapiens, read-out: Antiproliferative activity IC50 ± SEM, HT-29
[5] = test system: four human cancer cell lines (A-549, MCF-7, Panc-1, HT-29); assay: Antiproliferative assay, average over four cancer cell lines; format: cell-based; conditions: for GI50: Homo sapiens, average IC50 over the four cancer cell lines
[6] = test system: Caspase-3; assay: Caspase-3 activation assay; format: cell-based, human; conditions: MCF-7 cells; for Caspase-3 Fold change: versus control
Procedure: (§4) Refer to Supplementary Appendix A.
Allow all reagents to reach room temperature before use. Gently mix all liquid reagents prior to use. Determine the number of 8-well strips needed for the assay. Insert these in the frame(s) for current use. Add 100 μl of the Standard Diluent Buffer to the zero standard wells. Well(s) reserved for chromogen blank should be left empty. Add 100 μl of standards and controls or diluted samples to the appropriate microtiter wells. The sample dilution chosen should be optimized for each experimental system. Tap gently on side of plate to mix. Cover wells with plate cover and incubate for 2 hours at room temperature. Thoroughly aspirate or decant solution from wells and discard the liquid, Wash wells 4 times. […] Tap gently on the side of the plate to mix. Cover plate with plate cover and incubate for 1 hour at room temperature. Thoroughly aspirate or decant solution from wells and discard the liquid, Wash wells 4 times. Add 100 μl Anti-Rabbit IgG HRP Working Solution to each well except the chromogen blank(s). Prepare the working dilution as described in Preparing IgG HRP. Cover wells with the plate cover and incubate for 30 minutes at room temperature. Thoroughly aspirate or decant solution from wells and discard the liquid. Wash wells 4 times. Add 100 μl of Stabilized Chromogen to each well. The liquid in the wells will begin to turn blue. Incubate for 30 minutes at room temperature and in the dark. The incubation time for chromogen substrate is often determined by the microtiter plate reader used. Many plate readers have the capacity to record a maximum optical density (O.D.) of 2.0. The O.D. values should be monitored, and the substrate reaction stopped before the O.D. of the positive wells exceeds the limits of the instrument. The O.D. values at 450 nm can only be read after the Stop Solution has been added to each well. […] Add 100 μl of Stop Solution to each well. Tap side of plate gently to mix. The solution in the wells should change from blue to yellow. Read the absorbance of each well at 450 nm having blanked the plate reader against a chromogen blank composed of 100 μl each of Stabilized Chromogen and Stop Solution. Read the plate within 2 hours after adding the Stop Solution. Use a curve fitting software to generate the standard curve. […] Read the concentrations for unknown samples and controls from the standard curve. Multiply value(s) obtained for sample(s) by the appropriate dilution factor to correct for the dilution in step 3.

[7] = test system: Caspase-8; assay: Caspase-8 activation assay; format: cell-based, human; conditions: MCF-7 cells; for Caspase-8 Fold change: versus control
Procedure: as §4
(§5) (Cells are Plated in a density of 1.2 – 1.8 × 10,000 cells/well in a volume of 100µl complete growth medium + 100 ul of the tested compound per well in a 96-well plate for 24 hours before the enzyme assay for Tubulin.). The absorbance of each microwell was read on a spectro-photometer at 450 nm. A standard curve is prepared from 7human Caspase-8 standard dilutions and human Caspase-8 concentration determined.

[8] = test system: Caspase-9; assay: Caspase-9 activation assay; format: cell-based, human; conditions: MCF-7 cells; for Caspase-9 Fold change: versus control
Procedure: To elucidate the apoptotic mechanism of compounds 3d and 5a, whether via the intrinsic or extrinsic pathway, their impact on caspase-8 and caspase-9 was evaluated.
RPMI 1640 with 10% FBS was used to assist the cells grow at 37 °C, and then the cells were treated with the compounds being studied to check the activity of caspase-3, -8, and -9 ([Hisham et al., 2019]). Refer to Supplementary Appendix A.
as §5, with “Cells were obtained from American Type Culture Collection, cells were grown in RPMI 1640 containing 10% fetal bovine serum at 37°C, stimulated with the compounds to be tested for caspase8, and lysed with Cell Extraction Buffer. This lysate was diluted in Standard Diluent Buffer over the range of the assay and measured for human active caspase-8 content. (Cells” for “(Cells”

[9] = test system: MCF-7 human breast cancer cell line; assay: Flow cytometric cell cycle analysis; format: cell-based
[10] = in vitro; conditions: human
Procedure: (§6) MTT assay was performed to investigate the effect of the synthesized compounds on mammary epithelial cells (MCF-10A). The cells were propagated in medium consisting of Ham's F-12 medium/ Dulbecco's modified Eagle's medium (DMEM) (1:1) supplemented with 10% foetal calf serum, 2 mM glutamine, insulin (10 μg/mL), hydrocortisone (500 ng/mL) and epidermal growth factor (20 ng/mL). Trypsin ethylenediamine tetra acetic acid (EDTA) was used to passage the cells after every 2-3 days. 96-well flat-bottomed cell culture plates were used to seed the cells at a density of 10^4 cells mL^-1. The medium was aspirated from all the wells of culture plates after 24 h followed by the addition of synthesized compounds (in 200 μL medium to yield a final concentration of 0.1% (v/v) dimethyl sulfoxide) into individual wells of the plates. Four wells were designated to a single compound. The plates were allowed to incubate at 37°C for 96 h. Afterwards, the medium was aspirated and 3-[4,5-dimethylthiazol-2-yl]-2,5-diphenyltetrazolium bromide (MTT) (0.4 mg/mL) in medium was added to each well and subsequently incubated for 3 h. The medium was aspirated and 150 μL dimethyl sulfoxide (DMSO) was added to each well. The plates were vortexed followed by the measurement of absorbance at 540 nm on a microplate reader.

[11] = test system: Bax; assay: Bax level assay; conditions: MCF-7 cells; for Bax Fold change: versus control
Procedure: Bring all reagents, except the human Bax-α Standard, to room temperature for at least 30 minutes prior to opening. The human Bax-α Standard solution should not be left at room temperature for more than 10 minutes. All standards, controls and samples should be run in duplicate. Refer to the Assay Layout Sheet to determine the number of wells to be used and put any remaining wells with the desiccant back into the pouch and seal the ziploc. Store unused wells at 4 °C. Pipet 100 μL of Assay Buffer into the S0 (0 pg/mL standard) wells. Pipet 100 μL of Standards #1 through #6 into the appropriate wells. Pipet 100 μL of the Samples into the appropriate wells. Tap the plate gently to mix the contents. Seal the plate and incubate at room temperature on a plate shaker for 1 hour at ~500 rpm. Empty the contents of the wells and wash by adding 400 μL of wash solution to every well. Repeat the wash 4 more times for a total of 5 washes. After the final wash, empty or aspirate the wells and firmly tap the plate on a lint free paper towel to remove any remaining wash buffer. Pipet 100 μL of yellow Antibody into each well, except the Blank. Seal the plate and incubate at room temperature on a plate shaker for 1 hour at ~500 rpm. Empty the contents of the wells and wash by adding 400 μL of wash solution to every well. Repeat the wash 4 more times for a total of 5 washes. After the final wash, empty or aspirate the wells and firmly tap the plate on a lint free paper towel to remove any remaining wash buffer. Add 100 μL of blue Conjugate to each well, except the Blank. Seal the plate and incubate at room temperature on a plate shaker for 30 minutes at ~500 rpm. Empty the contents of the wells and wash by adding 400 μL of wash solution to every well. Repeat the wash 4 more times for a total of 5 washes. After the final wash, empty or aspirate the wells and firmly tap the plate on a lint free paper towel to remove any remaining wash buffer. Pipet 100 μL of Substrate Solution into each well. Incubate for 30 minutes at room temperature on a plate shaker at ~500 rpm. Pipet 100 μL Stop Solution to each well. Blank the plate reader against the Blank wells, read the optical density at 450 nm. Calculate the average net Optical Density (OD) bound for each standard and sample by subtracting the average Blank OD from the average OD for each standard and sample. Using linear graph paper, plot the Average Net OD for each standard versus Bax concentration in each standard. Approximate a straight line through the points. The concentration of Bax in the unknowns can be determined by interpolation.

[12] = test system: Bcl-2; assay: Bcl-2 level assay; conditions: MCF-7 cells; for Bcl-2 Fold reduction: versus control
Procedure: Mix all reagents thoroughly without foaming before use. Wash the microwells twice with approximately 300 μL Wash Buffer per well with thorough aspiration of microwell contents between washes. Take caution not to scratch the surface of the microwells. After the last wash, empty the wells and tap microwell strips on absorbent pad or paper towel to remove excess Wash Buffer. Use the microwell strips immediately after washing or place upside down on a wet absorbent paper for not longer than 15 minutes. […] Add 100 μL of Sample Diluent in duplicate to all standard wells and to the blank wells. […] Add 100 μL of Sample Diluent, in duplicate, to the blank wells. Add 80 μL of Sample Diluent, in duplicate, to the sample wells. Add 20 μL of each Sample, in duplicate, to the designated wells. Add 50 μL of diluted biotin-conjugate to all wells, including the blank wells. Cover with a plate cover and incubate at room temperature, on a microplate shaker at 100 rpm if available, for 2 hours. Remove plate cover and empty the wells. Wash microwell strips 3 times as described in step 2. Add 100 μL of diluted Streptavidin-HRP to all wells, including the blank wells. Cover with a plate cover and incubate at room temperature, on a microplate shaker at 100 rpm if available, for 1 hour. Remove plate cover and empty the wells. Wash microwell strips 3 times as described in step 2. […] Pipette 100 μl of mixed TMB Substrate Solution to all wells, including the blanks. Incubate the microwell strips at room temperature (18° to 25°C) for about 15 minutes, if available on a rotator set at 100 rpm. Avoid direct exposure to intense light. The point, at which the substrate reaction is stopped, is often determined by the ELISA reader. Many ELISA readers record absorbance only up to 2.0 O.D. Therefore, the color development within individual microwells must be watched by the person running the assay and the substrate reaction stopped before positive wells are no longer properly detectable. Stop the enzyme reaction by quickly pipetting 100 μL of Stop Solution into each well, including the blank wells. It is important that the Stop Solution is spread quickly and uniformly throughout the microwells to completely inactivate the enzyme. Results must be read immediately after the Stop Solution is added or within one hour if the microwell strips are stored at 2 - 8°C in the dark. Read absorbance of each microwell on a spectrophotometer using 450 nm as the primary wavelength.

[13] = test system: Cytochrome C; assay: Cytochrome C assay; conditions: MCF-7 cells; for Cytochrome C Fold change: versus control
Procedure: This lysate was diluted in Standard Diluent Buffer over the range of the assay and measured for cytochrome C content. (Cells are Plated in cells/well in a volume of 100µl complete growth medium + 100 µl of the tested compound + 50 µl of 1X biotin conjugated antibody+ 100 µl of 1X streptavidin-HRP+ 100 µL TMB substrate solution of per well in a 96-well plate for 24 hours before assay).

[14] = biological target: EGFR (Homo sapiens, UniProt P00533); assay: EGFR inhibitory assay (EGFR-TK test); conditions: EGFR inhibition IC50 ± SEM
Procedure: 5ʹ upstream to the EGFR sequence comprised a sequence that encoded (His)6. Sf-9 cells were infected for 72h for protein expression. The pellets of Sf-9 cells were solubilized in a buffer containing sodium vanadate (100 μM), aprotinin (10 μg/mL), triton (1%), HEPES buffer(50mM), ammonium molybdate (10 μM), benzamidine HCl (16 μg/mL), NaCl (10 mM),leupeptin (10 μg/mL) and pepstatin (10 μg/mL) at 0°C for 20 min at pH 7.4, followed by centrifugation for 20 min. To eliminate the nonspecifically bound material, a Ni-NTA super flow packed column was used to pass through and wash the crude extract supernatant first with 10mM and then with 100 mM imidazole. Histidine-linked proteins were first eluted with 250 and then with 500 mM imidazole subsequent to dialysis against NaCl (50 mM), HEPES (20 mM), glycerol (10%) and 1 μg/mL each of aprotinin, leupeptin and pepstatin for 120 min. The purification was performed either at 4 °C or on ice. To record autophosphorylation level, EGFR kinase assay was carried out on the basis of DELFIA/Time-Resolved Fluorometry. […] Each compound (10 μL) was incubated with recombinant enzyme (10 μL, 5 ng for EGFR, 1:80 dilution in 100 mM HEPES) for 10 min at 25 °C, subsequent to the addition of 5X buffer (10 μL, containing 2 mM MnCl2, 100 μM Na3VO4, 20 mM HEPES and 1 mM DTT) and ATP-MgCl2 (20 μL, containing 0.1 mM ATP and 50 mM MgCl2) and incubation for 1h. The negative and positive controls were included in each plate by the incubation of enzyme either with or without ATP-MgCl2. The liquid was removed after incubation and the plates were washed thrice using a wash buffer. The Europium-tagged antiphosphotyrosine antibody (75 μL, 400 ng) was added to each well followed by incubation of 1h and then washing of the plates using buffer. […] The autophosphorylation percentage inhibition by compounds was calculated using the following equation:
The majority of signals detected by antiphosphotyrosine antibody were from EGFR because the enzyme preparation contained low impurities.

[15] = biological target: HER-2 (Homo sapiens, UniProt P04626); assay: HER-2 inhibitory assay (ADP-Glo kinase assay)
Procedure: The ADP-Glo™ Kinase Assay was used for kinase activity detection, related kinases information: HER-2 (ab60866, Abcam), with a concentration of 100 ng/mL. Target compounds were dissolved in DMSO to obtain drug solutions with different concentrations, and the compound concentrations in the final reaction system (100 μL) were 1 nM, 20 nM, 40 nM, 80 nM, and 100 nM, respectively. 10μL of the solution containing compounds was transferred to a 96-well plate, then added 40 μL of 1 × kinase buffer (50 mM HEPES, pH 7.5) to each well, and mixed the mixture in the 96-well plate on a shaker for 10 min. Next, added 25 μL of ADP-Glo™ reagent to the above wells, mixed and incubated for another 40 min. Distributed 10 μL kinase detection reagent to the reaction and incubated for 30 min. Finally, the full-wavelength microplate reader was used to record the OD value.

[16] = Cell viability assay (MTT), normal mammary cells; conditions: human, MCF-10A normal mammary epithelial cells
Procedure: as §6

[17] = test system: panel of cancer cell lines; design: method as in Voigtlaender et al., 2018; conditions: ref Voigtlaender et al., 2018; read-out: GI50 against a panel of cancer cell lines; cited from earlier work
[18] = test system: breast (MCF-7) cancer cell line; design: method as in Voigtlaender et al., 2018; conditions: ref Voigtlaender et al., 2018, cited from earlier work; for IC50: read-out: IC50 against the MCF-7 cell line

Chain of HER-2 (P04626 676-1255 limits assumed): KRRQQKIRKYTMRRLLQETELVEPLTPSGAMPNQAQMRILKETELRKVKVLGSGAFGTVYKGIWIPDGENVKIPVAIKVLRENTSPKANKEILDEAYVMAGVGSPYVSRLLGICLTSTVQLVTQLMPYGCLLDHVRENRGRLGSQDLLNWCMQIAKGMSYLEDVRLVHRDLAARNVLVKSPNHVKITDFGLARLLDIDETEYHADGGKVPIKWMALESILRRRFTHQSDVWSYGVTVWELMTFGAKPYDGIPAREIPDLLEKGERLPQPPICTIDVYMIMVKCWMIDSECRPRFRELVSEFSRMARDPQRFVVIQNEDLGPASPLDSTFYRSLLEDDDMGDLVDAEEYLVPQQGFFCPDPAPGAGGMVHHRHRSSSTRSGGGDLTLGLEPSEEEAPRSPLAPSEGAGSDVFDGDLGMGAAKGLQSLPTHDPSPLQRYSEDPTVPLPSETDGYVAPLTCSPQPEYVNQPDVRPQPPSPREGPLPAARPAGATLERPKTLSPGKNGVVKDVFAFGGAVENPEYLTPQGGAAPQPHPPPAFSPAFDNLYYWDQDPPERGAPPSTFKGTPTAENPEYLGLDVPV
Chain of EGFR (P00533 669-1210): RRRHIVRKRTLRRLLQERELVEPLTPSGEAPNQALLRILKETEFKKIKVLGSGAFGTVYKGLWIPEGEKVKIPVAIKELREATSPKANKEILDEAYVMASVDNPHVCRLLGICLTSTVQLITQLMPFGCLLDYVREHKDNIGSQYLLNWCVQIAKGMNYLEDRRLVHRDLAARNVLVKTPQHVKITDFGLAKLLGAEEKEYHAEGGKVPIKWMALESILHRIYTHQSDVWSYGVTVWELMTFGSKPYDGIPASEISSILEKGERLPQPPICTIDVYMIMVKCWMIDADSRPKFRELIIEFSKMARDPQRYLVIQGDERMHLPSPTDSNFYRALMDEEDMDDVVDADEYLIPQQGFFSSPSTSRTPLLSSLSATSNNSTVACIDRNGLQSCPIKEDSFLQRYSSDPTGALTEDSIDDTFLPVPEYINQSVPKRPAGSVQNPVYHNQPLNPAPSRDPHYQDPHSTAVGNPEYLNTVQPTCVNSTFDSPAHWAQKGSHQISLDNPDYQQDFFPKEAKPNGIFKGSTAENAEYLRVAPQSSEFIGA

Structure (SMILES) | IC50 [1] | IC50 [2] | IC50 [3] | IC50 [4] | GI50 [5] | Caspase-3 Conc [6] | Caspase-3 Fold change [6] | Caspase-8 Conc [7] | Caspase-8 Fold change [7] | Caspase-9 Conc [8] | Caspase-9 Fold change [8] | Bax Conc [11] | Bax Fold change [11] | Bcl-2 Conc [12] | Bcl-2 Fold reduction [12] | Cytochrome C Conc [13] | Cytochrome C Fold change [13] | IC50 [14] | IC50 [15] | IC50 [18] | other results
O=c1[nH]c2ccccc2c(O)c1/C=N/Nc1ccc([N+](=O)[O-])cc1[N+](=O)[O-] [Compound 5a, (E)-3-((2-(2,4-Dinitrophenyl)hydrazono)methyl)-4-hydroxyquinolin-2(1H)-one] | 0.036 ± 0.003 µM | 0.034 ± 0.003 µM | 0.038 ± 0.003 µM | 0.038 ± 0.003 µM | 0.037 µM | 570 ± 5 pg/mL | 9.0 | 2.65 ± 0.25 ng/mL | 29 | 24 ± 1 ng/mL | 24 | 320 pg/mL and 320 ± 2 pg/mL | 35 | 0.70 ng/mL | 7 | 0.85 ng/mL | 17 | 0.087 ± 0.005 µM | 0.033 ± 0.002 µM | – | Fold less effective than erlotinib (GI50) [5]: 1.2; Percentage of cells in G2/M phase [9]: 1.94%; Percentage of cells in S phase ([9]; control 26.82%): 15.65%; viability at 4 days, 50 µM [10]: 88%; Times less potent than lapatinib, HER-2 inhibition ([15]; ratio to lapatinib IC50): 1.3
Cc1ccc(S(=O)(=O)N/N=C/c2c(O)c3ccccc3[nH]c2=O)cc1 [Compound 3d, (E)-N'-((4-hydroxy-2-oxo-1,2-dihydroquinolin-3-yl)methylene)-4-methyl benzenesulfonohydrazide] | 0.04 ± 0.003 µM | 0.037 ± 0.003 µM | 0.043 ± 0.004 µM | 0.042 ± 0.004 µM | 0.041 µM | 515 ± 5 pg/mL | 8.0 | 2.10 ± 0.20 ng/mL | 23 | 21 ± 3 ng/mL | 21 | 310 pg/mL and 310 ± 2 pg/mL | 34 | 0.80 ng/mL | 6 | 0.65 ng/mL | 13 | 0.091 ± 0.006 µM | 0.038 ± 0.002 µM | – | Fold less effective than erlotinib (GI50) ([5]; ratio to erlotinib GI50 = […] nM): 1.3; viability at 4 days, 50 µM [16]: 91%
CN[C@@H]1C[C@H]2O[C@@](C)([C@@H]1OC)n1c3ccccc3c3c4c(c5c6ccccc6n2c5c31)C(=O)NC4 [Staurosporine, reference compound] | – | – | – | – | – | – | – | – | – | 20 ± 1 ng/mL | – | 290 ± 2 pg/mL | – | 1.00 ng/mL | – | 0.50 ng/mL | – | – | – | – | Bax Conc ([11]; listed as staurosporine): 290 pg/mL
O=c1[nH]c2ccccc2c(O)c1/C=N/c1ccc(NS(=O)(=O)c2ncccn2)cc1 [Compound III] | – | – | – | – | – | – | – | – | – | – | – | – | – | – | – | – | – | – | – | 0.023 µM | GI50 [17]: 0.025 µM; Times more potent than erlotinib, MCF-7 ([18]; ratio of IC50 values): 1.8
C#Cc1cccc(Nc2ncnc3cc(OCCOC)c(OCCOC)cc23)c1 [Erlotinib, reference compound] | 0.03 ± 0.003 µM | 0.04 ± 0.003 µM | 0.03 ± 0.003 µM | 0.03 ± 0.003 µM | – | – | – | – | – | – | – | – | – | – | – | – | – | – | – | 0.04 µM | –
